Experimental data as given in patent publication US20180055844A1 (Celgene Corporation, priority 2011, published 2018).
“And” between values parts separate entries of the source, which are not always exact repeats. Identical values can stand only once.

What was measured:
Oral pharmacokinetics [1] = type: in vivo; details: Cyno monkey
DoHH2 xenograft = DoHH2 xenograft model; type: in vivo; details: for tumor growth inhibition: day 12
CRBN = molecular target: T1, CRBN (Homo sapiens, UniProt Q96SW2); experiment: CRBN interaction; type: binding; details: dose-dependent
T1 construct: endogenous in cells; HepG2 hepatocellular carcinoma cells

DLBCL cell lines = experiment: In vitro DLBCL cell thymidine incorporation assay (panel); type: cell-based; details: 5 days, 3H-thymidine incorporation
Text: Results of 3 independent experiments are shown (mean±SD) in FIG. 2. […] ABC-subtype cells appear more sensitive to the antiproliferative effect than other subtype cells including GCB-DLBCL and PMBL cells.

Rec-1 cells = experiment: Cytotoxicity assay (3 day ATP production); type: cell-based; details: Homo sapiens, Rec1; 72 hours; read-out: REC1 (MCL) IC50
Protocol: (§1) Cells line Farage, DOHH2 and Rec-1 were obtained from American Type Culture Collection (Manassas, Va., USA) Cytotoxicity assays were measured in 3 day ATP production assays as follows: The cells were plated in black/clear-bottom 96-well TC plates (BD Falcon, Cat #353948) at 3000 cells/75 μL (for DoHH-2 and Farage cells) or 6000 cells/75 μL (Rec-1 cells) media per well. […] Plates were then sealed with breathable sealing films (ISC BioExpress, Cat # T-2421-50) and placed in a 37° C., 5% CO2 humidified incubator for 72 hours. In addition, cells were seeded in a separate plate in the same manner as above, 25 μL medium in 1% DMSO was added to each well. This plate was immediately tested in the CellTiter-Glo Luminescent Cell Viability Assay (Promega, Cat # G7572) as 0 time point and the results were used to calculate GIC50 in the Farage and DOHH-2 cell experiments After 72 hours of incubation, 100 μL of CellTiter-Glo reagent were added to each well and incubated at room temperature with gentle shaking for 30 minutes. The plates were then analyzed for luminescence in a TopCount NXT Reader (Packard). Each well was counted for one second. Values for duplicate wells were averaged and then compared to the zero time point DMSO control (0% inhibition) to calculate the percentage inhibition of cell growth. Mean DOHH-2 GIC50 values and Farage GIC50 values were calculated from three experiments. Rec-1 IC50 values were calculated from two experiments.

DoHH-2 cells = experiment: Cytotoxicity assay (3 day ATP production); type: cell-based; details: Homo sapiens, 72 hours, read-out: DoHH2 (FL) GIC50
Protocol: as §1

Farage cells = experiment: Cytotoxicity assay (3 day ATP production); type: cell-based; details: 72 hours, read-out: Farage (GCB-DLBCL) GIC50
Protocol: as §1

[2] = Proliferation assays with Rituxan (Chou-Talalay method); type: cell-based
H929 myeloma cells = experiment: Cell cycle in siRNA-transfected H929 cells; type: cell-based; details: 72 h treatment
Protocol: Cells were treated with DMSO or an amount of a compound provided herein for 48 hours. Propidium iodide staining for cell cycle was performed using CycleTEST PLUS (Becton Dickinson) according to manufacturer's protocol. Following staining, cells were analyzed by a FACSCalibur flow cytometer using ModFit LT software (Becton Dickinson).
The effect of cereblon in H929 myeloma cells was also evaluated. H929 cells were transfected with mock, negative control siRNA and CRBN-siRNA-7 for 24, 48, 72 and 96 hours.

HIF-1α = HIF-1α protein expression in solid tumor cell lines; type: cell-based; details: 1 μM
U251 = experiment: Invasion of solid tumor cells; type: cell-based; details: Homo sapiens, U-251; U251 (PDGF), glioblastoma
SK-HEP-1 [3] = experiment: Invasion of solid tumor cells; type: cell-based; details: Homo sapiens, SK-HEP1; SK-HEP-1 (VEGF), hepatocellular
HCT15 = experiment: Solid tumor cell colony formation; type: cell-based; details: Homo sapiens, HCT-15
[4] = tested on: MM cell lines U266, 100-1 and 1K-2; experiment: Proliferation of CRBN-sensitive MM cell lines; type: cell-based
Oral pharmacokinetics [5] = type: in vivo; details: SCID mouse
PC-3 = experiment: Solid tumor cell colony formation; type: cell-based; details: Homo sapiens
pRb, IRF4 = experiment: Western blot of cell cycle regulators in H929 cells; type: cell-based
[6] = PK profiles in male monkeys; type: in vivo, monkey; details: for AUC(0-t) / Cmax: monkey, in vivo, po, male monkeys
TNFα = experiment: LPS-induced TNFα; type: cell-based
NCI-H929 MM xenograft = NCI-H929 MM xenograft model; type: in vivo; details: day 19
SK-HEP-1 [7] = experiment: Solid tumor cell colony formation; type: cell-based; details: Homo sapiens, SK-HEP1
[8] = cynomolgus monkey, plasma, 3 mg/kg, 3 mpk po

T1 sequence (Q96SW2 whole entry): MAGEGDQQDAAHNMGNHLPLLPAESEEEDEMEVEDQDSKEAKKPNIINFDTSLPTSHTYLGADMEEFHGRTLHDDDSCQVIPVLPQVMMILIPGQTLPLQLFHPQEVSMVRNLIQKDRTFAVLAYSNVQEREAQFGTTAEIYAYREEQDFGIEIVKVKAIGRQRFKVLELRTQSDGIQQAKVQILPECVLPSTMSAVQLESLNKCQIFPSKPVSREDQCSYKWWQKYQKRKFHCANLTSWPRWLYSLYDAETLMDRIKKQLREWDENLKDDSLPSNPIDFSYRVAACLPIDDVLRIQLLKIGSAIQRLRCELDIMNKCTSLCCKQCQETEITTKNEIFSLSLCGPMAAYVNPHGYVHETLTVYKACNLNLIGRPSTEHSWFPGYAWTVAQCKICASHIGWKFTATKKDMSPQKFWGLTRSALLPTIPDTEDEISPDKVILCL

Cc1nc2cccc(N)c2c(=O)n1C1CCC(=O)NC1=O (centres unmarked) [compound of Formula I, 3-(5-amino-2-methyl-4-oxo-4H-quinazolin-3-yl)-piperidine-2,6-dione]
F (Oral pharmacokinetics [1]; 3 mpk po): 32% | AUC (Oral pharmacokinetics [1]; [8]): 12000 ng·h/mL and 43 µM·h | Cmax (Oral pharmacokinetics [1]; [8]): 3300 ng/mL and 11 µM | half-life (Oral pharmacokinetics [1]; cynomolgus monkey, plasma, oral, 3 mpk): 5.8 h | clearance (Oral pharmacokinetics [1]; cynomolgus monkey, plasma, read-out: CLp): 0.072 L/h/kg | tumor growth inhibition (DoHH2 xenograft; 3 mpk in combination with Rituxan (1 mg/kg)): 45% | tumor growth inhibition (DoHH2 xenograft; 30 mpk in combination with Rituxan (1 mg/kg)): 55% | delay of time to tumor endpoint (DoHH2 xenograft; combination with Rituxan, 30 mg/kg dose): 63% | blood vessels counts in tumor (DoHH2 xenograft; in vivo): significantly inhibited | tumor growth (DoHH2 xenograft; single agent): inhibited tumor growth | interaction with HepG2 HCC CRBN (CRBN): interacts | interaction with endogenous myeloma CRBN (CRBN): interact | concentration starting at which proliferation of several lines of DLBCL cells was significantly (p<0.05) inhibited (DLBCL cell lines): 0.1 to 1 µM | IC50 (Rec-1 cells): 0.47 µM | IC50 (DoHH-2 cells): 0.61 µM | IC50 (Farage cells): 0.7 µM | interaction with Rituxan in proliferation assays [2]: synergistically | drug-induced delay in cell cycle progression (decrease of the number of cells in S phase) (H929 myeloma cells; H929, control (before CRBN knockdown)): 65% | drug-induced delay in cell cycle progression (decrease of the number of cells in S phase) (H929 myeloma cells; H929, knockdown of CRBN): 22% | % Inhibition of HIF-1α protein expression (HIF-1α; 786-O (renal cancer)): 41.70% | % Inhibition of HIF-1α protein expression (HIF-1α; DU145 (prostate cancer)): 66.01% | % Inhibition of HIF-1α protein expression (HIF-1α; HCT15 (colorectal cancer)): 69.26% | % Inhibition of HIF-1α protein expression (HIF-1α; HCT116 (colorectal cancer)): 74.60% | % Inhibition of HIF-1α protein expression (HIF-1α; HT29 (colorectal cancer)): 78.54% | % Inhibition of HIF-1α protein expression (HIF-1α; MCF-7 (breast cancer)): 74.82% | % Inhibition of HIF-1α protein expression (HIF-1α; Miapaca-3 (pancreatic cancer)): 33.72% | % Inhibition of HIF-1α protein expression (HIF-1α; Ovcar-3 (ovarian cancer)): 63.39% | % Inhibition of HIF-1α protein expression (HIF-1α; Skov-3 (ovarian cancer)): 100.00% | % Inhibition of HIF-1α protein expression (HIF-1α; U87 (brain cancer)): 73.81% | IC50 (U251): 3.7 µM | IC50 (SK-HEP-1 [3]): 0.0061 µM | inhibition at 10 µM (HCT15): 3% | proliferation of CRBN-sensitive MM cell lines U266, 100-1 and 1K-2 [4]: inhibit the proliferation | AUC (Oral pharmacokinetics [5]; in vivo, 3 mg/kg, 3 mpk po): 7100 ng·h/mL and 25 µM·h | Cmax (Oral pharmacokinetics [5]; in vivo, 3 mg/kg, 3 mpk po): 2900 ng/mL and 10 µM | Exposures (AUC(0-t)) versus dose (Oral pharmacokinetics [5]; up to 30 mg/kg): increased in a dose proportional manner | inhibition at 10 µM (PC-3): 14.8% | phosphorylation of pRB (pRb, IRF4): decreased | total level of protein IRF4 (pRb, IRF4): decreased | AUC(0-t) ([6]; 0.3 mg/kg): 1300 ng·h/mL and 4.5 µM·h | Cmax ([6]; 0.3 mg/kg): 100 ng/mL and 360 nM | AUC(0-t) ([6]; 3 mg/kg): 14000 ng·h/mL and 49 µM·h | Cmax ([6]; 3 mg/kg): 1100 ng/mL and 3.8 µM | AUC(0-t) ([6]; 10 mg/kg): 38000 ng·h/mL and 130 µM·h | Cmax ([6]; 10 mg/kg): 3100 ng/mL and 11 µM | AUC(0-t) ([6]; 30 mg/kg): 99000 ng·h/mL and 350 µM·h | Cmax ([6]; 30 mg/kg): 7700 ng/mL and 27 µM | Exposures (AUC(0-t)) versus dose ([6]; up to 30 mg/kg, male monkey): increased in a dose proportional manner | IC50 (TNFα): 0.017 µM | tumor growth inhibition (NCI-H929 MM xenograft; 0.3 mg/kg): 59% | tumor growth inhibition (NCI-H929 MM xenograft; 3 mg/kg): 73% | tumor growth inhibition (NCI-H929 MM xenograft; 30 mg/kg): 93% | inhibition at 10 µM (SK-HEP-1 [7]): 6%
